As usually defined, the IC50 is the concentration at which inhibition is half-maximal.

For experiment [1], the target named is T1, GST-tagged human ROCK1 catalytic domain 1-477 (Homo sapiens, UniProt Q13464).
T1 construct: human ROCK1 catalytic domain 1-477 from Carna Biosciences (cat #01-109); purchased Carna Biosciences 01-109; host or cells: baculovirus expression system
Nature of the experiment: Isolated Enzyme Assay, ROCK1 (LANCE Ultra ULight-CREBtide FRET). The class given is biochemical. Particulars: 30 μM highest concentration tested, read-out: Results from Isolated Enzyme Assay IC50 (μM) ROCK1. The procedure:
(§1) Exemplary compounds were tested for ability to inhibit Rho-associated protein kinase isoform 1 (ROCK1) and Rho-associated protein kinase isoform 2 (ROCK2). Assay procedures and results are described below.
(§2) Part I—Procedure for Determining ROCK Inhibition Ability of Test Compounds Using an Isolated Enzyme Assay
(§3) Protein constructs were purified from a baculovirus expression system. The peptide substrate was fluorescent LANCE® Ultra ULight-CREBtide: […] (PerkinElmer, # TRF0107-D). Kinase reactions were carried out in a 10 μL volume in 384-well plates: 50 nM ULight-CREBtide substrate, 2 nM constitutively active ROCK1 or ROCK2 kinase, and test compound in DMSO (or DMSO only for controls) were diluted into assay buffer containing 50 mM Tris-HCl (pH=7.5), 10 mM MgCl2, 1 mM EGTA, 0.01% Tween-20, and 2 mM DTT such that the final concentration of DMSO was 0.5%. After a 90 minute incubation at room temperature on a shaker table, the kinase reaction was stopped by addition of 10 mM EDTA, and phosphorylation of the substrate was detected by adding 1 nM LANCE® Ultra Europium-anti-phospho-CREB (ser133) antibody (PerkinElmer, # TRF0200-D) and incubating for 60 minutes on a shaker at room temperature. The fluorescence resonance energy transfer (FRET) signals were read and analyzed on an Envision™ 2103 Multilabel Reader (Perkin Elmer). The concentration of test compound required to inhibit substrate phosphorylation by 50% (the IC50) was calculated by non-linear regression using GraphPad PRIZM.

The target of experiment [2] is T2, GST-tagged human ROCK2 catalytic domain 1-553 (Homo sapiens, UniProt O75116).
T2 construct: GST-tagged human ROCK2 catalytic domain 1-553 from Carna Biosciences (Cat #01-110); purchased Carna Biosciences 01-110; host or cells: baculovirus expression system
Nature of the experiment: Isolated Enzyme Assay, ROCK2 (LANCE Ultra ULight-CREBtide FRET). The class given is biochemical. As to conditions: 30 μM highest concentration tested, read-out: Results from Isolated Enzyme Assay IC50 (μM) ROCK2. The procedure:
as §1, §2, §3
For orientation: Time-resolved FRET reads energy transfer from a long-lived donor to a nearby acceptor.

A further experiment addresses T3, ROCK2 (Homo sapiens, UniProt O75116).
T3 construct: endogenous in cells; host or cells: HAP1 knockout cells
Nature of the experiment: Cell-Based Assay, ROCK2 (HAP1 knockout cells, phospho-MYPT1 Thr853 ELISA). Particulars: class symbols, read-out: Results from Cell-Based Assay IC50 (μM) ROCK2. The procedure: Part II—Procedure for Determining ROCK Inhibition Ability of Test Compounds Using a Cell-Base Assay
The Cell-Based Assay for determining ROCK inhibition ability of test compounds utilized a genetically modified HAP1 cell line engineered to eliminate expression of either ROCK1 or ROCK2. In the procedure, HAP1 knockout cells are grown in Iscove's Modified Dulbecco's Medium that is additionally supplemented with 10% fetal bovine and 1x antibiotic-antimycotic mixture. Cells are plated in 96 well tissue culture plates at 1×10^5 cells/well (100 μL, of cells at 1×10^6/mL). Test compounds are solubilized in DMSO and diluted into the same media used to grow the cells. A 100 μL, aliquot of each compound dilution in media is added to each well containing the HAP1 cells and incubated at 37° C. for 30 minutes. Following compound incubation, the cells are pelleted by centrifugation at 1800 rpm for 5 minutes at 4° C. Media is removed from the cell pellet and the cells lysed and de-salted. An 80 μL, aliquot of each cell lysate is added to a single well of a 96-well high binding ELISA plate which has been pre-coated with a MYPT1 capture antibody and incubated at 4° C. overnight. The following day the ELISA plate is washed 4× with 0.05% Tween-20 in PBS. After washing, an anti-phospho-MYPT1 (Thr853) antibody is added and allowed to bind for 1 hour at room temperature. The wash step is repeated, and then an anti-rabbit HRP detection antibody is added and allowed to incubate at room temperature for 1 hour. The wash step is then repeated and 100 μL/well 1-Step™ Ultra TMB substrate is added to the ELISA plate and allowed to develop for approximately 5 minutes. The reaction is stopped by addition of H2SO4. Absorbance is read at 450 OD. Data is analyzed using GraphPad Prism software to calculate the 50% inhibitory concentration of test compound (IC50).
For orientation: ELISA stands for enzyme-linked immunosorbent assay.

Molecules are shown by their SMILES. Read-outs that look alike come from different tables or passages of the source.

T1 sequence (Q13464 1-477): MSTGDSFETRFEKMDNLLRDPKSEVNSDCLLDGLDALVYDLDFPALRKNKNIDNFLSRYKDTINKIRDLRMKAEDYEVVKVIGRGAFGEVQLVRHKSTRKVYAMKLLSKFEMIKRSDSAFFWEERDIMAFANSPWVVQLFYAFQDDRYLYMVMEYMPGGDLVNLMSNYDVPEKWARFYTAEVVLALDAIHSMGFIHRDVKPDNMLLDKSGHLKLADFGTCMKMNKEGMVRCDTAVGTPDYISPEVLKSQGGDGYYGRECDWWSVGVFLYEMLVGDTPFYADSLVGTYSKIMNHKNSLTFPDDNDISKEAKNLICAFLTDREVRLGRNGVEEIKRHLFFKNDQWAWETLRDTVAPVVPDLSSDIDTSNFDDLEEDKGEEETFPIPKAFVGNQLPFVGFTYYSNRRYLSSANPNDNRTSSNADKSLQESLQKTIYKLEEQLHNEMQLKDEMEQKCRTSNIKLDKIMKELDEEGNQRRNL
T2 sequence (O75116 1-553): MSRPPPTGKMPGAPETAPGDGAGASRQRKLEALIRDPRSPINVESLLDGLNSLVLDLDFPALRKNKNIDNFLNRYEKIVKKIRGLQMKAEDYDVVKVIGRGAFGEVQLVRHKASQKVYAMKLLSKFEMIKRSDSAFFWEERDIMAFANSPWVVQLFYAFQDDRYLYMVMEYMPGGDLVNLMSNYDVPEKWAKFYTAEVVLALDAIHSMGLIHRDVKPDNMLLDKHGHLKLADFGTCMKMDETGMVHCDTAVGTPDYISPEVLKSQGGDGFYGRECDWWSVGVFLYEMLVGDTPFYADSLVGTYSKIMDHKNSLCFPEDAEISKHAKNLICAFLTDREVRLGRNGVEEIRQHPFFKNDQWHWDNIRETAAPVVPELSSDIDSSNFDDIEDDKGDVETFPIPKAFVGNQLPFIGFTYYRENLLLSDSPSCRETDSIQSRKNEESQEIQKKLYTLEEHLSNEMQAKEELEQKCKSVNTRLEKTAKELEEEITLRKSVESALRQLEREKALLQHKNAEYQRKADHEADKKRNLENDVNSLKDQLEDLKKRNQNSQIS
T3 sequence (O75116 whole entry): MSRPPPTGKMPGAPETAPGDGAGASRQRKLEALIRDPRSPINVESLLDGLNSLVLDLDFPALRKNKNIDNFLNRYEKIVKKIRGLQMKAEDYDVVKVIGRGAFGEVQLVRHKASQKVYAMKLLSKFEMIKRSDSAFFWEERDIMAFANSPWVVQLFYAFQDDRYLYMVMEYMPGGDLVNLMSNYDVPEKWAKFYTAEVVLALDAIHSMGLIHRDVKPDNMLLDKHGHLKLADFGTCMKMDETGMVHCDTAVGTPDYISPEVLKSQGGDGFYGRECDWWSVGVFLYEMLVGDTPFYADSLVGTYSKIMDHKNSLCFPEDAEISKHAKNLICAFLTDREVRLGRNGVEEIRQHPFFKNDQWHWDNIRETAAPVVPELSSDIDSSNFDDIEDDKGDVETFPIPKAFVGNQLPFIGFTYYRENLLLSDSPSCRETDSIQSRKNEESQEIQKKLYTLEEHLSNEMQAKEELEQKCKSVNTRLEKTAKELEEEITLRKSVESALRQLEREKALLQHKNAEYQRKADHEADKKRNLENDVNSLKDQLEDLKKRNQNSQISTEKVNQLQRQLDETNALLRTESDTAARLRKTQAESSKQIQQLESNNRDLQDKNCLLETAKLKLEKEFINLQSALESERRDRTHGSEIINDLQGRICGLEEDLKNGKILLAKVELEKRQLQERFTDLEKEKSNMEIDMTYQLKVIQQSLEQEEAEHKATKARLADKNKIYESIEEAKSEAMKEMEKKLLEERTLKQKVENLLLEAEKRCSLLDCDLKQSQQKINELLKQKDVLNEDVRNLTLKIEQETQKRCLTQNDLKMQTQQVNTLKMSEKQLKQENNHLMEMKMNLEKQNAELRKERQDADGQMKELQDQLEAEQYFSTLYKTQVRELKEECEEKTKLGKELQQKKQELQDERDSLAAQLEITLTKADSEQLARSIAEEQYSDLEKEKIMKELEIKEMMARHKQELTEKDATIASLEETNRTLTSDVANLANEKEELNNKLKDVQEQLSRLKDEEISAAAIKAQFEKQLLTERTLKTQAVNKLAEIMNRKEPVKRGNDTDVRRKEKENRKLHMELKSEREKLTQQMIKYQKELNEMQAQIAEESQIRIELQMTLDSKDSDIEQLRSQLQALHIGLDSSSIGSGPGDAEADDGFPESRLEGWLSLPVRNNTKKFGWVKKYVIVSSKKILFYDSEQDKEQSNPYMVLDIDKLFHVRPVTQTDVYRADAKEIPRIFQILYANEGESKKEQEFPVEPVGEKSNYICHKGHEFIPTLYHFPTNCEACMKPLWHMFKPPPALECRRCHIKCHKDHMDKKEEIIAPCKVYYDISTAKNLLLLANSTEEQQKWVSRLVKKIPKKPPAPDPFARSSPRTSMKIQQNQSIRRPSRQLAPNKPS

As to `Cc1n[nH]c2ccc(Nc3nc(-c4cccc(NC(=O)c5ccnn5C)c4)ns3)cc12` [Compound A-8], the results for the half-inhibitory concentration (IC50) in experiment [1] (isolated enzyme) and in experiment [2] (isolated enzyme) were greater than 30 µM and less than 1 µM, respectively.
With `CN1CCN(C(=O)c2cccc(-c3nsc(Nc4ccc5[nH]ncc5c4Cl)n3)c2)CC1` [IV-85], the 50% inhibitory concentration (IC50) in experiment [1] (isolated enzyme assay) and in experiment [2] (isolated enzyme assay) was 1 to 15 µM throughout.
Consider `Cc1coc(-c2cc(CO)cc(-c3nsc(Nc4ccc5[nH]ncc5c4Cl)n3)c2)n1` [IV-68], for which the IC50 (in experiment [1] (isolated enzyme assay); in experiment [2] (isolated enzyme assay); on ROCK2) was less than 1 µM each time.
On to `CS(=O)(=O)Nc1cccc(-c2nsc(Nc3ccc4[nH]ncc4c3Cl)n2)c1` [IV-16], for which the values for the IC50 in experiment [1] (isolated enzyme assay) and in experiment [2] (isolated enzyme assay) were 1 to 15 µM and less than 1 µM, respectively.
The like results for `CN(C)C(=O)c1cccc(-c2nsc(Nc3ccc4[nH]ncc4c3Cl)n2)c1` [IV-87] were, in that order, greater than 30 µM and 1 to 15 µM.
As for `O=C1CCCN1c1cc(-c2nsc(Nc3ccc4[nH]ncc4c3Cl)n2)cn2ccnc12` [IV-92], the IC50 in experiment [1] (isolated enzyme assay) and in experiment [2] (isolated enzyme assay) was greater than 30 µM in each case.
Turning to `Cn1cc(-c2nsc(Nc3ccc4[nH]ncc4c3Cl)n2)cc(N2CCCC2=O)c1=O` [IV-11], the concentration for half-maximal inhibition (IC50) was greater than 30 µM in experiment [1] (isolated enzyme assay) and 1 to 15 µM in experiment [2] (isolated enzyme assay).
As to `Cc1n[nH]c2ccc(Nc3nc(-c4cncc(NC(=O)c5ccnn5C)c4)ns3)cc12` [Compound A-7], the IC50 in experiment [1] (isolated enzyme) and in experiment [2] (isolated enzyme) was greater than 30 µM throughout.
Regarding `O=C(Nc1cc(-c2nsc(Nc3ccc4[nH]ncc4c3Cl)n2)ccn1)c1cocn1` [IV-96], the IC50 in experiment [1] (isolated enzyme assay) and in experiment [2] (isolated enzyme assay) was greater than 30 µM each time.
`Cc1nn(C(F)F)cc1S(=O)(=O)Nc1cccc(-c2nsc(Nc3ccc4[nH]ncc4c3Cl)n2)c1` [IV-98]: the IC50 in experiment [1] (isolated enzyme assay) and in experiment [2] (isolated enzyme assay) was greater than 30 µM in each case.
In the case of `Cn1cc(-c2nsc(Nc3ccc4[nH]ncc4c3Cl)n2)cc(NC(=O)c2cnccn2)c1=O` [IV-1], the IC50 in experiment [1] (isolated enzyme assay) was greater than 30 µM; in experiment [2] (isolated enzyme assay) it was less than 1 µM.
With `O=C(Nc1cncc(-c2nsc(Nc3ccc4[nH]ncc4c3Cl)n2)c1)c1cncs1` [IV-18], the 50% inhibitory concentration (IC50) in experiment [1] (isolated enzyme assay) is greater than 30 µM; in experiment [2] (isolated enzyme assay) it was less than 1 µM.
The matching figures for `O=C(c1cccc(-c2nsc(Nc3ccc4[nH]ncc4c3Cl)n2)c1)N1CCCC1` [IV-86]: 1 to 15 µM and 1 to 15 µM.
The matching figures for `O=C1CCCN1c1cc(-c2nsc(Nc3ccc4[nH]ncc4c3Cl)n2)ccn1` [IV-52]: less than 1 µM and less than 1 µM.
With `Cc1coc(-c2cccc(-c3nsc(Nc4cc5cn[nH]c5cc4F)n3)c2)n1` [IV-93], the IC50 in experiment [1] (isolated enzyme assay) and in experiment [2] (isolated enzyme assay) was greater than 30 µM throughout.
As to `O=c1c2ccccc2ncn1-c1cccc(-c2nsc(Nc3ccc4[nH]ncc4c3Cl)n2)c1` [IV-95], the IC50 in experiment [1] (isolated enzyme assay) and in experiment [2] (isolated enzyme assay) was greater than 30 µM in each case.
Turning to `Cc1n[nH]c2ccc(Nc3nc(-c4ccnc(NC(=O)c5ccnn5C)c4)ns3)cc12` [Compound A-5], the half-inhibitory concentration (IC50) in experiment [1] (isolated enzyme) and in experiment [2] (isolated enzyme) was greater than 30 µM in each case.
As to `CS(=O)(=O)c1cccc(-c2nsc(Nc3ccc4[nH]ncc4c3Cl)n2)c1` [IV-99], the half-inhibitory concentration (IC50) in experiment [1] (isolated enzyme assay) and in experiment [2] (isolated enzyme assay) was greater than 30 µM in each case.
As for `O=C(c1cccc(-c2nsc(Nc3ccc4[nH]ncc4c3Cl)n2)c1)N1CCc2ccccc2C1` [IV-84], the 50% inhibitory concentration (IC50) in experiment [1] (isolated enzyme assay) was greater than 30 µM; in experiment [2] (isolated enzyme assay), less than 1 µM.
As for `O=C(Cn1cc(Cl)cn1)Nc1cccc(-c2nsc(Nc3ccc4[nH]ncc4c3Cl)n2)c1` [IV-104], the half-inhibitory concentration (IC50) in experiment [1] (isolated enzyme assay) and in experiment [2] (isolated enzyme assay) was greater than 30 µM in each case.
Regarding `CP(C)(=O)c1cccc(-c2nsc(Nc3ccc4[nH]ncc4c3Cl)n2)c1` [IV-102], the half-inhibitory concentration (IC50) in experiment [1] (isolated enzyme assay) and in experiment [2] (isolated enzyme assay) was greater than 30 µM each time.
Regarding `N#Cc1c(Nc2nc(-c3cccc([N+](=O)[O-])c3)ns2)ccc2[nH]ncc12` [IV-100], the IC50 in experiment [1] (isolated enzyme assay) and in experiment [2] (isolated enzyme assay) was greater than 30 µM throughout.
As to `Cc1c(S(=O)(=O)Nc2cccc(-c3nsc(Nc4ccc5[nH]ncc5c4Cl)n3)c2)cnn1C(F)F` [IV-51], the results for the IC50 in experiment [1] (isolated enzyme assay) and in experiment [2] (isolated enzyme assay) were 15 to 30 µM and 1 to 15 µM, respectively.
Consider `O=C(c1cccc(-c2nsc(Nc3ccc4[nH]ncc4c3Cl)n2)c1)N1CCOCC1` [IV-80], for which the 50% inhibitory concentration (IC50) in experiment [1] (isolated enzyme assay) and in experiment [2] (isolated enzyme assay) was 1 to 15 µM throughout.
For `CC(C)N1CCN(c2cc(-c3nsc(Nc4ccc5[nH]ncc5c4Cl)n3)cn(C)c2=O)C1=O` [IV-3], the IC50 in experiment [1] (isolated enzyme assay) is 1 to 15 µM; in experiment [2] (isolated enzyme assay), less than 1 µM.
Take `O=C(Nc1cccc(-c2nsc(Nc3ccc4[nH]ncc4c3)n2)c1)c1cccnc1` [Compound A-2]: the 50% inhibitory concentration (IC50) in experiment [1] (isolated enzyme) is greater than 30 µM; in experiment [2] (isolated enzyme), less than 1 µM.
As to `O=S(=O)(Nc1cccc(-c2nsc(Nc3ccc4[nH]ncc4c3Cl)n2)c1)c1cccnc1` [IV-40], the IC50 in experiment [1] (isolated enzyme assay) is greater than 30 µM; in experiment [2] (isolated enzyme assay), 1 to 15 µM.
Take `Cn1cc(-c2nsc(Nc3ccc4[nH]ncc4c3Cl)n2)cc(C(=O)O)c1=O` [IV-91]: the half-inhibitory concentration (IC50) in experiment [1] (isolated enzyme assay) and in experiment [2] (isolated enzyme assay) was greater than 30 µM each time.
Regarding `Cn1nccc1C(=O)NC[C@@H]1CCN(c2nsc(Nc3ccc4[nH]ncc4c3Cl)n2)C1` [IV-94], the IC50 in experiment [1] (isolated enzyme assay) and in experiment [2] (isolated enzyme assay) was greater than 30 µM in each case.
Consider `O=C(Nc1cncc(-c2nsc(Nc3ccc4[nH]ncc4c3Cl)n2)c1)c1cocn1` [IV-36], for which the 50% inhibitory concentration (IC50) in experiment [1] (isolated enzyme assay) is greater than 30 µM; in experiment [2] (isolated enzyme assay), less than 1 µM.
For `O=C(Nc1cccc(-c2nsc(Nc3ccc4[nH]ncc4c3)n2)c1)c1c[nH]cn1` [Compound A-1], the values for the IC50 in experiment [1] (isolated enzyme) and in experiment [2] (isolated enzyme) were 1 to 15 µM and less than 1 µM, respectively.
For `Cn1nccc1C(=O)NC[C@@H]1CCCN1c1nsc(Nc2ccc3[nH]ncc3c2Cl)n1` [IV-110], the IC50 in experiment [1] (isolated enzyme assay) was greater than 30 µM; in experiment [2] (isolated enzyme assay), 15 to 30 µM.
The matching figures for `NC[C@@H]1CCCN1c1nsc(Nc2ccc3[nH]ncc3c2Cl)n1` [IV-109]: 15 to 30 µM and greater than 30 µM.
On to `Cc1cc(=O)n(-c2cc(-c3nsc(Nc4ccc5[nH]ncc5c4Cl)n3)ccn2)n1C` [IV-23], for which the half-inhibitory concentration (IC50) in experiment [1] (isolated enzyme assay) and in experiment [2] (isolated enzyme assay) was less than 1 µM throughout.
On to `CN(C)CCn1cnc2c(-c3nsc(Nc4ccc5[nH]ncc5c4Cl)n3)cccc21` [IV-67], for which the IC50 in experiment [1] (isolated enzyme assay) and in experiment [2] (isolated enzyme assay) was 1 to 15 µM in each case.
As for `Cn1cc(-c2nsc(Nc3ccc4[nH]ncc4c3Cl)n2)cc(N2CCOC2=O)c1=O` [IV-4], the IC50 in experiment [1] (isolated enzyme assay) is greater than 30 µM; in experiment [2] (isolated enzyme assay) it was less than 1 µM.
The matching figures for `Cc1nc2ccccc2c(=O)n1-c1cccc(-c2nsc(Nc3ccc4[nH]ncc4c3Cl)n2)c1` [IV-111]: greater than 30 µM and 1 to 15 µM.
As to `Cn1nccc1C(=O)Nc1cncc(-c2nsc(Nc3ccc4[nH]ncc4c3Cl)n2)c1` [Compound A-6], the figures for the half-inhibitory concentration (IC50) in experiment [1] (isolated enzyme) and in experiment [2] (isolated enzyme) were greater than 30 µM and less than 1 µM, respectively.
For `Cc1cc(NC(=O)c2cc(C)nn2C)cc(-c2nsc(Nc3ccc4[nH]ncc4c3Cl)n2)n1` [IV-37], the results for the IC50 in experiment [1] (isolated enzyme assay) and in experiment [2] (isolated enzyme assay) were greater than 30 µM and less than 1 µM, respectively.
The like results for `Cc1nc(S(=O)(=O)Nc2cccc(-c3nsc(Nc4ccc5[nH]ncc5c4Cl)n3)c2)cn1C` [IV-41] were, in that order, less than 1 µM and 1 to 15 µM.
The matching figures for `O=c1ccccn1-c1cccc(-c2nsc(Nc3ccc4[nH]ncc4c3Cl)n2)c1` [IV-53]: 1 to 15 µM and 1 to 15 µM.

(Values after patent US10556898B2, “Indazolyl-1,2,4-thiadiazolamines and related compounds for inhibition of Rho-associated protein kinase and the treatment of disease” (Lycera Corporation, priority 2016, dated 2020).)
